This note sets out measurements from paper PMC5895817, “A Bowman-Birk type chymotrypsin inhibitor peptide from the amphibian, Hylarana erythraea” (Scientific Reports, 2018).

“Also recorded” adds a separate entry of the source.

For one data set, the target named is T1, human 20 S proteasome (Homo sapiens, UniProt P28074).
T1 construct: purchased Biochem, Boston, MA, USA
Put plainly: Human 20 S proteasome inhibition (chymotrypsin-like activity). The note with it: chymotrypsin-like activity of human 20 S proteasome (7 nM working solution); substrate Suc-Leu-Leu-Val-Tyr-AMC; 50 mM HEPES, 0.035% SDS, pH 7.5; pre-incubation 15 min, 37 °C; Morrison equation; duplicate, repeated three times. Type of data set: biochemical. Here is the method:
(§1) Phe-Pro-Arg-AMC, Succinyl-Ala-Ala-Pro-Phe-AMC and Suc-Leu-Leu-Val-Tyr-AMC (Abcam, Cambridge, UK) were used as substrates for trypsin, chymotrypsin and human 20 S proteasome respectively. 10 μl trypsin/chymotrypsin working solution (1 µg/ml) were added to the wells of a micro-titre plate containing 180 μl substrate and various inhibitor solutions. 10 μl human 20 S proteasome (Biochem, Boston, MA, USA) working solution (7 nM) in 50 mM HEPES buffer containing 0.035% SDS, pH 7.5 was added to the well of a micro-titre plate containing 180 μl substrate solution and each of various inhibitor solution. Each determination was carried out in duplicate. The rate of hydrolysis of the trypsin/chymotrypsin substrate was monitored subsequently and continuously, at 37 °C, by measuring the rate of increase of fluorescence in a FLUOstar OPTIMA multi-well plate reader (BMG Labtech, Ortenberg, Germany). For the 20 S proteasome, the rate of hydrolysis of the substrate was monitored after a pre-incubation for 15 min, at 37 °C. […] Each assay was repeated three times.

The target in the next data set is chymotrypsin (Bos taurus, UniProt P00766). Put plainly: Trypsin/chymotrypsin inhibition assay (Morrison): chymotrypsin. Format: biochemical. The method, then:
as §1

A further data set has as its system HMEC-1. Nature of the data set: MTT cell viability, normal cell line HMEC-1. Format: cell-based. The note with it: 24 h, 5 replicates, three independent experiments. The method, then: The cancer cell line H157 (ATCC-CRL-5802, ATCC, Teddington, Middlesex, UK) and PC-3 (ATCC-CRL-1435, ATCC, Teddington, Middlesex, UK) were cultured in RPMI-1640 culture medium (Invitrogen, Paisley, UK) containing 10% FBS and 1% Penicillin-Streptomycin. MCF-7 (ATCC-HTB-22, ATCC, Teddington, Middlesex, UK) was cultured in DMEM culture medium (Invitrogen, Paisley, UK) containing 10% FBS and 1% Penicillin-Streptomycin. The normal cell line HMEC-1 (ATCC-CRL-3243, ATCC, Teddington, Middlesex, UK) was cultured in MCDB131 medium (Gibco, Paisley, UK) containing 10% FBS (foetal bovine serum, obtained from Sigma-Aldrich, St. Louis, MO, USA), 1% Penicillin-Streptomycin (Invitrogen, Paisley, UK), epidermal growth factor (10 ng/mL), hydrocortisone (1 μg/mL, obtained from Sigma-Aldrich, St. Louis, MO, USA) and glutamine (10 mM). Cells were seeded into a 96-well plate and incubated for 24 h (37 °C, 5% CO2) followed by starvation using serum-free medium. Sample solutions were loaded on this plate which was further incubated for 24 h. The 3-(4,5-dimethylthiazol-2-yl)-2,5-diphenyltetrazolium bromide (MTT) solution (5 mg/ml, 10 μl/well) was utilized to form the formazan after a 4 h incubation. Cell-produced-formazan was dissolved in DMSO (100 μl/well). The absorbance was recorded by using an ELx808^TM Absorbance Microplate Reader at 570 nm (BioTek Instruments, Inc., Winooski, VT, USA). […]

For another data set, the target named is T2, trypsin (Bos taurus, UniProt P00760).
T2 construct: gene PRSS1
T2 sequence (P00760 24-246): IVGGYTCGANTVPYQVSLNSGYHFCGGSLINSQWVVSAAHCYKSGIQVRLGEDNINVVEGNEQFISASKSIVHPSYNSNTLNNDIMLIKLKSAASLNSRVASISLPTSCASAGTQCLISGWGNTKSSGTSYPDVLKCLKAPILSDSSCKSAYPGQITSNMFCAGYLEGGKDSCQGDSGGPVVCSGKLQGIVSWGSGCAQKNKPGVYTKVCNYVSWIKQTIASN
Put plainly: Trypsin/chymotrypsin inhibition assay (Morrison): trypsin. Format: biochemical. Conditions: substrate Phe-Pro-Arg-AMC, 37 °C, fluorescence, Morrison equation, each determination in duplicate, assay repeated three times. The method, then:
as §1

In another data set the test system is horse erythrocytes. Nature of the data set: Haemolysis activity test. Format: cell-based. The note with it: 2% suspension in PBS, 1–512 μM, 37 °C, 4 h, absorbance 550 nm, 5 replicates, three independent experiments. The method, then:
Completely washed horse erythrocyte (TCS Biosciences Ltd., Buckingham, UK) suspension was prepared using phosphate-buffered saline (PBS). A series of peptide solutions were incubated with a 2% suspension of red blood cells at final concentrations of 1–512 μM at 37 °C for 4 h. After the incubation, 200 μl of each supernatant was transferred into a 96-well plate and the absorbance at 550 nm was measured with a Synergy HT plate reader (BioTek Instruments, Inc., Winooski, VT, USA). The BioTek’s Gen5^TM software was used to analyse the result. (Biolise BioTek EL808, Winooski, VT, USA). All the peptide concentrations and controls had 5 replicates in single 96-well plate and three independent experiments were performed.

As to `CC[C@H](C)[C@H](NC(=O)[C@@H]1CSSC[C@H](NC(=O)CNC(=O)[C@H](CCCNC(=N)N)NC(=O)[C@H](CC(C)C)NC(=O)[C@@H](NC(=O)[C@@H](N)[C@@H](C)O)C(C)C)C(=O)N[C@@H](Cc2c[nH]c3ccccc23)C(=O)N[C@@H]([C@@H](C)O)C(=O)N[C@@H](Cc2ccccc2)C(=O)N[C@@H](CO)C(=O)N[C@@H](Cc2ccccc2)C(=O)N2CCC[C@H]2C(=O)N2CCC[C@H]2C(=O)N[C@@H](CCCCN)C(=O)N2CCC[C@H]2C(=O)N1)C(N)=O` [HECI, TVLRGCWTFSFPPKPCI-NH2], the Ki at human 20 S proteasome stood at 8.55 ± 1.84 µM.

In the case of `CC[C@H](C)[C@H](NC(=O)[C@@H]1CSSC[C@H](NC(=O)CNC(=O)[C@H](CCCNC(=N)N)NC(=O)[C@H](CC(C)C)NC(=O)[C@@H](NC(=O)[C@@H](N)[C@@H](C)O)C(C)C)C(=O)N[C@@H](Cc2c[nH]c3ccccc23)C(=O)N[C@@H]([C@@H](C)O)C(=O)N[C@@H](CCCCN)C(=O)N[C@@H](CO)C(=O)N[C@@H](Cc2ccccc2)C(=O)N2CCC[C@H]2C(=O)N2CCC[C@H]2C(=O)N[C@@H](CCCCN)C(=O)N2CCC[C@H]2C(=O)N1)C(N)=O` [K^9-HECI, TVLRGCWTKSFPPKPCI-NH2], the Ki amounted to 13.9 ± 1.09 µM on chymotrypsin and 0.79 ± 0.04 µM on trypsin. Moreover, the “cytotoxicity / growth inhibition on normal cells HMEC-1” value in the data set on HMEC-1 is given as “low degree of cytotoxicity; also recorded: low degree of inhibition; also recorded: only slight cytotoxicity on HMEC-1”. Further, in the data set on horse erythrocytes, the haemolysis entry is reported as “low degree of haemolytic activity; also recorded: low degree of haemolysis”.

By Ki is commonly meant the equilibrium dissociation constant of an inhibitor or competing ligand from its target. Higher therefore signals a looser hold on the target.
